# Laboratory results published in paper PMC11062899, “De novo development of small cyclic peptides that are orally bioavailable” (Nature Chemical Biology, 2023).
# “And” between values parts separate entries of the source, which are not always exact repeats. Equal values may be shown once. Read-outs that look alike come from different tables or passages of the source.
# How the values were obtained:
# [1] = molecular target: human α-thrombin (Homo sapiens, UniProt P00734); assay: Protease inhibition, Ki for human α-thrombin (fluorogenic substrate Z-Gly-Gly-Arg-AMC); type: biochemical; conditions: for Human alpha thrombin inhibition, slope normalized to DMSO: replicates R1-R3
# Summary of the method: (§1)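 Ki values come from Cheng–Prusoff correction of IC50, itself fitted by four-parameter logistic regression of activity versus a no-peptide control. Assays used 2 nM human or 3 nM rat thrombin, 50 μM Z-Gly-Gly-Arg-AMC, 30 min kinetic fluorescence at 25 °C.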
# [2] = molecular target: T1, rat α-thrombin (Rattus norvegicus, UniProt P18292); assay: Protease inhibition, Ki for rat α-thrombin (fluorogenic substrate Z-Gly-Gly-Arg-AMC); type: biochemical; conditions: for Rat alpha thrombin inhibition, slope normalized to DMSO: replicates R1-R3
# T1 construct: rat α-thrombin (Molecular Innovations) were used at final concentrations of 2 nM and 3 nM; purchased Molecular Innovations
# Summary of the method: as §1
# [3] = Passive artificial membrane permeability (PAMPA);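 on Permeability% Average: top well sample relative to theoretical equilibrium sample by TIC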
# [4] = peptide concentration 1.00E+02 uM
# [5] = peptide concentration 1.19E-05 uM
# [6] = peptide concentration 1.22E-02 uM
# [7] = peptide concentration 1.25E+01 uM
# [8] = peptide concentration 1.53E-03 uM
# [9] = peptide concentration 1.56E+00 uM
# [10] = peptide concentration 1.91E-04 uM
# [11] = peptide concentration 1.95E-01 uM
# [12] = peptide concentration 2.38E-05 uM
# [13] = peptide concentration 2.44E-02 uM
# [14] = peptide concentration 2.50E+01 uM
# [15] = peptide concentration 3.05E-03 uM
# [16] = peptide concentration 3.12E+00 uM
# [17] = peptide concentration 3.81E-04 uM
# [18] = peptide concentration 3.91E-01 uM
# [19] = peptide concentration 4.77E-05 uM
# [20] = peptide concentration 4.88E-02 uM
# [21] = peptide concentration 5.00E+01 uM
# [22] = peptide concentration 6.10E-03 uM
# [23] = peptide concentration 6.25E+00 uM
# [24] = peptide concentration 7.63E-04 uM
# [25] = peptide concentration 7.81E-01 uM
# [26] = peptide concentration 9.54E-05 uM
# [27] = peptide concentration 9.77E-02 uM
smiles,measurement,setting,value
O=C1C[C@H]2CCCN2C(=O)[C@H](Cc2ccccc2)NC(=O)[C@@H](NC(=O)c2ccc(Cl)s2)CCC=CCCCN1 [compound 41],Ki,"[1]; average of R1-R3, read-out: Human alpha thrombin inhibition, Ki Average",1570 nM
same,"Human alpha thrombin inhibition, slope normalized to DMSO",[1]; [4],9.8 and 10.5 and 10.6
same,"Human alpha thrombin inhibition, slope normalized to DMSO",[1]; [5],108.3 and 123.2 and 86.4
same,"Human alpha thrombin inhibition, slope normalized to DMSO",[1]; [6],81.6 and 60.4 and 71.9
same,"Human alpha thrombin inhibition, slope normalized to DMSO",[1]; [7],16.2 and 18.0 and 13.2
same,"Human alpha thrombin inhibition, slope normalized to DMSO",[1]; [8],102.7 and 105.3 and 96.0
same,"Human alpha thrombin inhibition, slope normalized to DMSO",[1]; [9],60.1 and 45.1 and 57.4
same,"Human alpha thrombin inhibition, slope normalized to DMSO",[1]; [10],110.2 and 100.0 and 95.6
same,"Human alpha thrombin inhibition, slope normalized to DMSO",[1]; [11],90.5 and 54.5 and 66.4
same,"Human alpha thrombin inhibition, slope normalized to DMSO",[1]; [12],111.1 and 102.0 and 98.3
same,"Human alpha thrombin inhibition, slope normalized to DMSO",[1]; [13],60.0 and 83.9 and 99.7
same,"Human alpha thrombin inhibition, slope normalized to DMSO",[1]; [14],16.8 and 4.9 and 12.0
same,"Human alpha thrombin inhibition, slope normalized to DMSO",[1]; [15],65.1 and 103.9 and 92.0
same,"Human alpha thrombin inhibition, slope normalized to DMSO",[1]; [16],47.1 and 40.3 and 37.6
same,"Human alpha thrombin inhibition, slope normalized to DMSO",[1]; [17],113.9 and 97.1 and 98.1
same,"Human alpha thrombin inhibition, slope normalized to DMSO",[1]; [18],59.1 and 81.1 and 60.5
same,"Human alpha thrombin inhibition, slope normalized to DMSO",[1]; [19],106.6 and 104.5 and 98.0
same,"Human alpha thrombin inhibition, slope normalized to DMSO",[1]; [20],96.4 and 58.3 and 94.8
same,"Human alpha thrombin inhibition, slope normalized to DMSO",[1]; [21],14.2 and 14.0 and 12.9
same,"Human alpha thrombin inhibition, slope normalized to DMSO",[1]; [22],78.1 and 71.3 and 72.1
same,"Human alpha thrombin inhibition, slope normalized to DMSO",[1]; [23],15.4 and 28.4 and 22.2
same,"Human alpha thrombin inhibition, slope normalized to DMSO",[1]; [24],61.4 and 105.9 and 50.7
same,"Human alpha thrombin inhibition, slope normalized to DMSO",[1]; [25],75.8 and 62.9 and 64.9
same,"Human alpha thrombin inhibition, slope normalized to DMSO",[1]; [26],104.3 and 61.9 and 103.5
same,"Human alpha thrombin inhibition, slope normalized to DMSO",[1]; [27],84.6 and 105.9 and 85.2
same,IC50,"[1]; single replicates R1-R3, read-out: Human alpha thrombin inhibition, IC50",2700 nM and 1730 nM and 1690 nM
same,Ki,"[1]; single replicates R1-R3, read-out: Human alpha thrombin inhibition, Ki",2.08 µM (2×) and 1.34 µM (2×) and 1.3 µM (2×)
same,Ki,"[2]; average of R1-R3, read-out: Rat alpha thrombin inhibition, Ki Average",180 nM
same,"Rat alpha thrombin inhibition, slope normalized to DMSO",[2]; [4],5.3 and 5.7 and 4.1
same,"Rat alpha thrombin inhibition, slope normalized to DMSO",[2]; [5],101.7 and 102.1 and 101.8
same,"Rat alpha thrombin inhibition, slope normalized to DMSO",[2]; [6],87.5 and 92.0 and 84.9
same,"Rat alpha thrombin inhibition, slope normalized to DMSO",[2]; [7],9.2 and 8.7 and 7.8
same,"Rat alpha thrombin inhibition, slope normalized to DMSO",[2]; [8],94.8 and 97.7 and 92.4
same,"Rat alpha thrombin inhibition, slope normalized to DMSO",[2]; [9],25.0 and 25.1 and 31.0
same,"Rat alpha thrombin inhibition, slope normalized to DMSO",[2]; [10],106.1 and 99.6 and 88.4
same,"Rat alpha thrombin inhibition, slope normalized to DMSO",[2]; [11],69.0 and 50.2 and 49.8
same,"Rat alpha thrombin inhibition, slope normalized to DMSO",[2]; [12],103.2 and 98.1 and 102.8
same,"Rat alpha thrombin inhibition, slope normalized to DMSO",[2]; [13],92.3 and 89.1 and 86.1
same,"Rat alpha thrombin inhibition, slope normalized to DMSO",[2]; [14],4.2 and 6.8 and 8.8
same,"Rat alpha thrombin inhibition, slope normalized to DMSO",[2]; [15],99.2 and 99.8 and 88.1
same,"Rat alpha thrombin inhibition, slope normalized to DMSO",[2]; [16],8.2 and 23.7 and 18.2
same,"Rat alpha thrombin inhibition, slope normalized to DMSO",[2]; [17],107.3 and 92.0 and 81.7
same,"Rat alpha thrombin inhibition, slope normalized to DMSO",[2]; [18],38.0 and 46.4 and 45.2
same,"Rat alpha thrombin inhibition, slope normalized to DMSO",[2]; [19],102.3 and 101.4 and 86.4
same,"Rat alpha thrombin inhibition, slope normalized to DMSO",[2]; [20],83.5 and 87.2 and 79.0
same,"Rat alpha thrombin inhibition, slope normalized to DMSO",[2]; [21],3.7 and 8.5 and 7.9
same,"Rat alpha thrombin inhibition, slope normalized to DMSO",[2]; [22],92.6 and 94.8 and 84.9
same,"Rat alpha thrombin inhibition, slope normalized to DMSO",[2]; [23],13.6 and 12.8 and 13.7
same,"Rat alpha thrombin inhibition, slope normalized to DMSO",[2]; [24],102.3 and 100.6 and 67.7
same,"Rat alpha thrombin inhibition, slope normalized to DMSO",[2]; [25],42.8 and 23.4 and 43.3
same,"Rat alpha thrombin inhibition, slope normalized to DMSO",[2]; [26],92.9 and 92.2 and 96.6
same,"Rat alpha thrombin inhibition, slope normalized to DMSO",[2]; [27],73.2 and 69.4 and 67.8
same,IC50,"[2]; single replicates R1-R3, read-out: Rat alpha thrombin inhibition, IC50",326 nM and 228 nM and 420 nM
same,Ki,"[2]; single replicates R1-R3, read-out: Rat alpha thrombin inhibition, Ki",180 nM (2×) and 126 nM (2×) and 232 nM (2×)
same,PAMPA permeability: % permeability,"[3]; 50 μM, 12–18 h, acceptor concentration relative to equilibrium",64 ± 11%
same,Permeability% (single replicates R1–R3),"[3]; 50 μM, 13 h (Fig. 5d)",76.34% and 63.06% and 53.71%
same,Permeability% Average,"[3]; 50 μM, 13 h (Fig. 5d)",64.4%
same,Papp at 50 μM,"[3]; PAMPA, pH 7.4",9.33 ×10⁻⁶ cm/s
